Results reported in the NIST ThermoML archive (doi:10.1016/j.jct.2012.12.007).

Assay: xn = mol fraction of the nth substance listed
Conditions: 101.3 kPa, Liquid; for speed of sound: Sing-around technique in a fixed-path interferometer; for mass density: Vibrating tube method

CCOCCOCCOCC [diethylene glycol diethyl ether] + CO
Conditions	mass density [kg/m3]	speed of sound [m/s]
293.15 K, x2 = 0.1141	904.9	1259.4
293.15 K, x2 = 0.1553	904.05	1259.4
293.15 K, x2 = 0.1987	903.07	1259.2
293.15 K, x2 = 0.249	901.79	1258.6
293.15 K, x2 = 0.2972	900.38	1257.7
293.15 K, x2 = 0.3651	898.01	1255.9
293.15 K, x2 = 0.3841	897.27	1255.2
293.15 K, x2 = 0.4206	895.72	1253.7
293.15 K, x2 = 0.4696	893.32	1251.3
293.15 K, x2 = 0.5133	890.89	1248.6
293.15 K, x2 = 0.5624	887.61	1244.7
293.15 K, x2 = 0.6126	883.69	1240
293.15 K, x2 = 0.6545	879.81	1235.1
293.15 K, x2 = 0.698	875.07	1229
293.15 K, x2 = 0.7575	867.11	1218.6
293.15 K, x2 = 0.8037	859.25	1208.1
293.15 K, x2 = 0.8469	850.24	1196
293.15 K, x2 = 0.9023	835.03	1175.4
293.15 K, x2 = 0.9467	818.74	1153.6
298.15 K, x2 = 0.1296	900	1240
298.15 K, x2 = 0.1589	899.4	1239.9
298.15 K, x2 = 0.1917	898.67	1239.7
298.15 K, x2 = 0.2627	896.83	1239
298.15 K, x2 = 0.2904	896.02	1238.5
298.15 K, x2 = 0.3505	894.01	1237.1
298.15 K, x2 = 0.3925	892.41	1235.8
298.15 K, x2 = 0.4241	891.01	1234.4
298.15 K, x2 = 0.4639	889.09	1232.6
298.15 K, x2 = 0.5181	886.01	1229.3
298.15 K, x2 = 0.5637	882.97	1225.8
298.15 K, x2 = 0.6132	879.12	1221.2
298.15 K, x2 = 0.6207	878.44	1220.4
298.15 K, x2 = 0.6959	870.83	1210.9
298.15 K, x2 = 0.7434	864.68	1203
298.15 K, x2 = 0.8007	855.37	1190.8
298.15 K, x2 = 0.8481	845.46	1177.7
298.15 K, x2 = 0.9005	831.08	1158.6
298.15 K, x2 = 0.9476	813.97	1135.9
303.15 K, x2 = 0.1058	895.27	1221.5
303.15 K, x2 = 0.1571	894.27	1221.5
303.15 K, x2 = 0.1991	893.31	1221.4
303.15 K, x2 = 0.2309	892.58	1220.9
303.15 K, x2 = 0.2886	890.89	1220.4
303.15 K, x2 = 0.3249	889.71	1219.5
303.15 K, x2 = 0.3748	887.88	1218.2
303.15 K, x2 = 0.4216	885.91	1216.5
303.15 K, x2 = 0.473	883.4	1214.1
303.15 K, x2 = 0.5164	880.9	1211.5
303.15 K, x2 = 0.5681	877.47	1207.7
303.15 K, x2 = 0.6092	874.33	1204.1
303.15 K, x2 = 0.6548	870.07	1199
303.15 K, x2 = 0.6984	865.35	1193.3
303.15 K, x2 = 0.7448	859.28	1185.6
303.15 K, x2 = 0.8012	849.99	1173.9
303.15 K, x2 = 0.8484	840.19	1161.1
303.15 K, x2 = 0.9007	825.94	1142.6
303.15 K, x2 = 0.9489	808.25	1119.6
